Assay results as given in PMC6260965 (Structure (London, England : 1993), 2018).
Read-outs that look alike come from different tables or passages of the source.

Assays:
NS3/4A protease D168A [1] = target: NS3/4A protease D168A (Hepatitis C virus genotype 1a, UniProt P27958, D1194A); test: biochemical; assay type: biochemical, HCV
[2] = tested on: NS3/4A protease Y56H/D168A; test: Enzyme inhibition assay, Y56H/D168A protease; assay type: biochemical, HCV; conditions: for loss in potency in enzyme inhibition assays: Y56H/D168A relative to WT protease
NS3/4A protease Y56H = NS3/4A protease Y56H (Hepatitis C virus genotype 1a, UniProt P27958, Y1082H); test: Enzyme inhibition assay, Y56H protease; assay type: biochemical, HCV
NS3/4A protease D168A [3] = test: biochemical; assay type: biochemical, HCV; conditions: D168A relative to WT protease
[4] = tested on: NS3/4A protease Y56H/D168A versus sum of Y56H and D168A; test: Double mutant cycle analysis from inhibition constants; conditions: calculated from measured Ki; negative coupling
[5] = target: NS3/4A protease Y56H/D168A (Hepatitis C virus genotype 1a, UniProt P27958, D1194A/Y1082H); test: Enzyme inhibition assay, Y56H/D168A protease; assay type: biochemical, HCV
[6] = tested on: GT3 double substitution variant Y56H/Q168R; conditions: GT3 Y56H/Q168R selected in vitro; ref Ng et al., 2017; cited from earlier work
[7] = tested on: HCV Con1 (genotype 1b) reporter replicon, H77 NS3 protease region with Y56H/D168A; test: Cell-based drug susceptibility; conditions: Y56H/D168A compared to WT
[8] = tested on: HCV Con1 (genotype 1b) reporter replicon, H77 NS3 protease region with D168A; test: Cell-based drug susceptibility; conditions: D168A compared to WT

With `CCc1nc2ccc(OC)cc2nc1O[C@@H]1C[C@H]2C(=O)N[C@]3(C(=O)NS(=O)(=O)C4CC4)C[C@H]3/C=C\CCCCC[C@H](NC(=O)OC(C)(C)C)C(=O)N2C1` [5172-mcP1P3] the Ki (NS3/4A protease D168A [1]; read-out: inhibition constant (Ki), D168A variant) was 82.4 nM and the “loss in potency in enzyme inhibition assays” value [2] was 200–400 fold.
With `CC(C)(C)OC(=O)N[C@H]1CCCCC/C=C\[C@@H]2C[C@@]2(C(=O)NS(=O)(=O)C2CC2)NC(=O)[C@@H]2C[C@@H](OC(=O)N3Cc4cccc(F)c4C3)CN2C1=O` [danoprevir] the Ki (NS3/4A protease Y56H) was 3 nM, the Ki (NS3/4A protease D168A [1]) was 199 nM and the “potency loss in enzyme inhibition assays” value (NS3/4A protease D168A [3]) was 200 fold. For the same molecule, the “difference in ΔΔG for the double mutant compared to sum of the single mutants” value (shortened to “difference in ΔΔG for the double mutant”) [4] was ~ 0.06 kcal/mol, the “additional reduction in potency with Y56H” value ([2]; Y56H/D168A relative to D168A, enzyme inhibition) was 2.5 fold and the “loss in potency in enzyme inhibition assays” value [2] was 500 fold. The Ki [5] was 520 nM.
In the case of `CC(C)(C)[C@@H]1NC(=O)O[C@@H]2CCC[C@H]2OC/C=C/C(F)(F)c2nc3ccccc3nc2O[C@@H]2C[C@@H](C(=O)N[C@]3(C(=O)NS(=O)(=O)C4(C)CC4)C[C@H]3C(F)F)N(C2)C1=O` [glecaprevir], the loss in potency [6] is listed as about 1400 fold.
In the case of `C=C[C@@H]1C[C@]1(NC(=O)[C@@H]1C[C@@H]2CN1C(=O)[C@H](C(C)(C)C)NC(=O)O[C@@H]1C[C@H]1CCCCCc1nc3ccc(OC)cc3nc1O2)C(=O)NS(=O)(=O)C1CC1` [grazoprevir], the “lower potency in replicon assays” value [7] is reported as 1923 fold, the “potency loss in enzyme inhibition assays” value (NS3/4A protease D168A [3]) is reported as over 200 fold and the “difference in ΔΔG for the double mutant” value [4] is reported as 1 to 2 kcal/mol. The “potency loss in replicon assays” value [8] was “over 100 fold” and the “loss in potency in enzyme inhibition assays” value [2] was 2500 fold.
For `Cc1cnc(C(=O)N[C@H]2CCCCC/C=C\[C@@H]3C[C@@]3(C(=O)NS(=O)(=O)C3CC3)NC(=O)[C@@H]3C[C@@H](Oc4nc5ccccc5c5ccccc45)CN3C2=O)cn1` [paritaprevir], the “lower potency in replicon assays” value [7] was 2941 fold, the “difference in ΔΔG for the double mutant” value [4] was 1 to 2 kcal/mol and the “loss in potency in enzyme inhibition assays” value [2] was 8500 fold.
